Reference: PMC9976893, “Dynamic states of eIF6 and SDS variants modulate interactions with uL14 of the 60S ribosomal subunit” (Nucleic Acids Research, 2023)

System: full-length human eIF6
Test: Surface plasmon resonance of uL14 peptides on immobilized eIF6
Conditions: BIAcore S200, eIF6 on CM5 chip, peptide 0-500 μM in 20 mM HEPES pH 7.4, 150 mM NaCl, 0.01% BSA, 0.002% Tween 20; repeated three times; non-specific binding subtracted
Method: SPR analyses were carried out using a BIAcore S200 instrument (GE-Healthcare). eIF6 (50 μg/ml) was solubilized in 20 mM ammonium acetate pH 4.0 and immediately immobilized on a CM5 sensor chip (4913 Response Units [RU] using NHS/EDC chemistry). After baseline stabilization, titrations were performed by injecting increasing concentrations (0–500 μM, 1:2 dilutions) of uL14-WT ([…]), the site-specific mutant peptides, or the uL14-ΔC ([…]) peptide, solubilized in running buffer (20 mM HEPES pH 7.4, 150 mM NaCl, 0.01% BSA, and 0.002% Tween 20). At the end of each titration, a solution of 20 mM HEPES pH 7.4 and 1.5 M NaCl was used to regenerate the chip. The flow rate was 25 μl/min. Peptides were solubilized in water and their concentration determined at 280 nm using the molar extinction coefficient ϵ280 = 5500 M^−1 cm^−1. To ensure reproducibility, each experiment was repeated three times. Sensograms were corrected for baseline.
For SPR studies, full-length elF6 was immobilized to the surface, and the C-terminal peptide of uL14 (aa 121–140) was used in the fluid phase (Figure 2D). […] The contribution of non-specific binding of the peptide to the surface was subtracted for each sensorgram. […] It further highlighted the significance of the N135 and S138 for interaction with eIF6. […]

VAKECADLWPRI [uL14-ΔC]
binding to immobilized eIF6 (SPR): complete loss in binding
